Test results as given in patent EP1228058B1, “BENZOPYRANYL GUANIDINE DERIVATIVES, PROCESS FOR PREPARATION THEREOF, AND PHARMACEUTICAL COMPOSITIONS CONTAINING THEM” (Dongbu Hannong Chemical Co., Ltd., priority 1999, dated 2001).

Columns and labels:
[1] = system: rat aorta; experiment: Vasodilation effects on isolated blood vessels of rats (methoxamine-constricted aortic rings); assay type: cell-based; conditions: isolated rat aorta constricted with methoxamine (3 uM); read-out: Vasodilation Activity (in Vitro, rat aorta) (IC50)
From the text: Male Sprague-Dawly rats (350-450 g, obtained from the Experimental Animal Team of the Korea Research Institute of Chemical Technology) were knocked unconscious by hitting the occipital region, sacrificed by cervical dislocation, and underwent thoracotomy. After being quickly removed, the thoracic aorta was deprived of the adipose tissue and cut into aortic rings of 3 mm width. The aorta was lightly rubbed with a modified Krebs Henseleit buffer (Physiological Salt Solution, PSS) soaked cotton club to remove the inner epithelial layer therefrom. While being suspended in an organ bath containing a physiological buffer, the vascular tissue was allowed to equilibrate under a resting tension of 2 g and then, stand for 1 hour at 37 °C for stabilization with a supply of a carbogen consisting of 95% O2-5% CO2.
Thereafter, the vascular tissue was constricted with 10^-5 M phenylephrine and washed several times with PSS and this procedure was repeated again to ensure the stable reacivity of vascular smooth muscle to repetitive constriction/dilatation.
In addition, 3x10^-6 M methoxamine was used to induce an intensive constriction in the vascular smooth muscle. When the vasoconstriction induced by the methoxamine reached and maintained a maximum, test compounds and controls were cumulatively added to the organ baths in concentrations of 1, 3, 10 and 30 uM so as to induce vasodilatation. As for the controls, they were Cromakalim and BMS-180448 (the compounds of the chemical formula 2), both known to be the first generation KATP activator with potent vasodilatation and cardioprotection effects.
Following the addition of the drugs, the change in the maximal constriction induced by methoxamine was calculated to plot a concentration-dilation response curve. Through a linear regression analysis, IC50, the drug concentration at which the vascular tissue is 50% dilated, was obtained for each drug.

[2] = system: ischemic heart models of rats; experiment: Heart protective (anti-ischemic) activity in ischemic heart models of anesthetized rats; assay type: in vivo; conditions: 45 min occlusion, 90 min reperfusion
Procedure: Male rats (350-450 g, obtained from the Experimental Animal Team of the Korea Research Institute of Chemical Technology) were anesthetized by the intraperitoneal injection of pentobarbital at a dose of 75 mg/kg. After trachetomy, the rats were rendered to respire artificially at a rate of 60/min with a stroke volume of 10 ml/kg. Cannulars were inserted into the fermoral vein and the fermoral artery and used for drug administration and blood pressure measurement, respectively.
In the ischemic myocardium damage models, the body temperature has an important influence on the results. To avoid the change in the body temperature, a body temperature measuring probe was inserted into the rectum of each rat and the body temperature was constantly kept at 37 °C with the aid of a homeothermic blanket control unit.
Afterwards, during testing, a continuous measurement was made of the mean arterial blood pressures and heart rates from the rats. For the measurement of the blood pressure, a pressure transducer, such as that manufactured by Grass Ins., MA, U.S.A., identified as Model Statham P23XL, was used. The heart rate was measured by a tachometer, such as that manufactured by Gould Inc., OH, U.S.A., identified as Biotachometer. In addition, all of the changes occurring were continuously recorded through the Gould 2000 chart recorder, manufactured by Gould Inc.
The left coronary artery was occluded according to the Selye H. method as follows. The rats underwent a left thoracotomy operation for partial opening of the chest and the right-side chest was pressurized by the middle finger of the left hand to push the heart out. Immediately after the left anterior descending coronary artery hereinafter referred to as (LAD) was carefully stitched using a suture needle with 5-0 silk ligature, the heart was then repositioned in the thoracic cavity while both ends of the ligature were situated outside. The opposite ligature ends were passed through a PE tube (PE100, 2.5 cm) and allowed to stand loose for 20 min for stabilization. Via the cannula inserted into the femoral vein, vehicles or drugs were administered into the rats which were rendered to stand for 30 min in order to sufficiently elicit the efficacies of the drugs. BMS-180448 was used as a control drug and the i.v.administration dose was 0.3 mg/kg for all test drugs of interest and the control drug.
Next, the PE tube which had the doubled strands of the ligature passed therethrough was pushed toward the heart and then, set upright by tightly pulling end regions of the ligature with a hemostatic pincette while pressing the coronary artery. The PE tube was allowed to stand for 45 min for the occlusion of the coronary artery, followed by the removal of the hemostatic pincette and then, by the reperfusion for 90 min.
After the reocclusion of the coronary artery in accordance with the above procedure, the rats were administered with 2 ml of a 1% Evans blue through an intravenous route. Subsequently, an excess of pentobarbital was intravenously injected to kill the rats, after which the heart was removed and then, deprived of the right ventricle and both atria. The left ventricle was cut horizontally to the heart apex into 5 or 6 slices which were weighed. From the surface of each slice, images were input with the aid of a Hi-scope into a computer installed with an image analyzing program (Image Pro Plus). From the images input into the computer, the area of the normal blood stream tissue region which appeared blue in a computer monitor and the area which appeared colorless were measured. The percentage of the colorless area to the total area of each slice was calculated and multiplied by the weight of each slice to determine the area at risk (AAR) of each slice. […]

[3] = system: ischemic heart models of beagle dogs; experiment: Heart protective (anti-ischemic) activity in ischemic heart models of anesthetized beagle dogs; assay type: in vivo; conditions: total dose 2 mg/kg infused i.v. over 40 min, 90 min occlusion, 5 h reperfusion
Procedure: In order to determine whether the compounds of the formula 1 are protective for the ischemic hearts of larger animals, experiments determining the anti-ischemic effects of the compounds on beagle dogs were conducted as follows. The experiments on beagle dogs followed the method of Grover et al.' (G. J. Grover et al., J. Cardiovasc. Pharmacol. 25, 40 (1995)).
After being anesthetized by an intravenous injection of pentobarbital at a dose of 35 mg/kg, male beagle dogs (8-12 kg) were further infused with pentobarbital sodium at a dose of 3-4 mg/kg through the right cephalic vein throughout the experiments, so as to keep the anesthesia constant. […] The heart rate was measured by a tachometer, such as that manufactured by Gould Inc., OH, U.S.A., identified as Biotachometer. In addition, all of the changes occurring during the experiment were continuously recorded through the Gould 2000 chart recorder, manufactured by Gould Inc.
The fifth intercostal space was incised to open the thorax and the LAD was separated from its surrounding tissues. […] The LAD part upstream of the silk ligature was isolated from adjacent tissues and the blood flow was measured quantitatively. […] Using polygraph such as Grass Model 7E, the electrocardiogram was measured and read (Lead II). […]

[4] = system: Rat aortic smooth muscle cells; experiment: Inhibition of proliferation of vascular smooth muscle cells ([3H]-thymidine incorporation into DNA); assay type: cell-based; conditions: [^3H]-thymidine into DNA; angiotensin II (10^-7M) stimulated = 100; 72 hr
Procedure: Inhibitory effects on cell proliferation was evaluated by measurement of incorporation of [^3H]-thymidine into DNA. Rat aortic smooth muscle cells were grown in 24 well plate for 3 days to near confluence in DMEM containing 10% FBS, then DMEM containing FBS was washed out. Cells were cultured again in DMEM without serum for 48 hr to be quiescent. […] During the last 4 hours of incubation, [^3H]-thymidine (1 uCi/ml) was added. […] The samples were filtered through glass microfiber filter (GF/B. Whatmann) under vacuum. After washing the filters 3 times with 2 ml of an aqueous solution of 5% TCA, the radioactivity incorporated into DNA was counted by Liquid Scintillation Counter (Packard, TRI-CARB, 2100TR), then calculated incorporation % of [^3H]-thymidine.

[5] = Acute oral toxicity test in rats; conditions: rat, in vivo, single oral dose in 0.5% methyl cellulose, read-out: lethal dose (LD50) for oral administration
Procedure: In this test six-week old SPF SD rats were used with two rats assigned to each group. The compounds of examples 1, 2, 3, 5, 7, 8, 9, 10, 13, 14, 15, 19, 22, 23, 24, 25, 26, 28, 29, 30, 31, 32, 33, 34, 35, 36, 37, 38, 39, 40, 41, 44, 46, 47, 48, 49, 51, 52, 57, 58, 60, 62, 64, 67, 68, 69, 71 and 72 were suspended in 0.5% methyl cellulose, respectively, and administered orally at a single dose of 1 g/kg using a ball-tipped needle. The dosing volume was 10 ml/kg. […] All survivors at the end of the observation period underwent laparotomy under ether anesthesia and the blood samples were taken from the abdominal aorta for hematological tests and biochemical analysis. After sacrificing the animals, autopsy was performed for macroscopic observation of the organs and tissues. Tissue samples of vital organs from macroscopic legion were removed and fixed in 10% neutral buffered formalin solution, then processed by standard procedures for histopathology and examined under light microscope. There were no significant changes in clinical symptoms, body weight and mortalities. Also in hematology, serum chemistry parameters and macroscopic observation, no drug-related changes were observed.

| Structure (SMILES) | IC50 [1] | Anti-ischemic Activity (in vivo, rats) (0.3 mg/kg i.v.) IZ/AAR (%) [2] | Anti-ischemic Activity (in vivo, dogs) (2 mg/kg/40 i.v.) min,i.v.) IZ/AAR (%) [3] | Incorporation % [4] | LD50 [5] |
| --- | --- | --- | --- | --- | --- |
| CC1(C)Oc2ccc(C#N)cc2[C@@H](NC(=NC#N)Nc2ccc(Cl)cc2)[C@@H]1O [BMS-180448, reference compound] | 1380 nM | 39.14% | 38.02% | – | – |
| COC(OC)[C@]1(C)Oc2ccc([N+](=O)[O-])cc2[C@H](NC(=NC#N)NCc2ccccc2)[C@H]1O [Example 22, (2R, 3R, 4S)-N''-cyano-N (6-nitro-3,4-dihydro-3-hydroxy-2-methyl-2-dimethoxy methyl-2H-benzopyran-4-yl)-N'-benzylguanidine] | – | – | – | 64.0% | > 1000 mg/kg |
